One data set has as its system ESC-T cells. Briefly: In vitro decidualization of immortalized human ESC-T cells (decidualization marker mRNA, morphology). Format: cell-based. Details: Lowering of PRL and IGFBP1 mRNA expression vs differentiation media only / Morphological change during decidualization: dose or concentration left out as unconfirmed. An excerpt: Decidualization in human cells was monitored by measuring the mRNA expression of two decidualization markers, PRL and IGFBP1.
This NADP+ analog inhibits two enzymes in the PPP, G6PD and 6GPDH, which utilize NADP+ and convert it into NADPH.
Two major results of the PPP are the production of ribose 5-phosphate and regeneration of NADPH. Production of ribose 5-phosphate is a central component in the de novo synthesis of ribonucleosides (RNs) and deoxyribonucleosides (DRNs). […] To address this question, ESC-T cultures were used and the differentiation media was supplemented with RNs and DRNs during treatment with PPP inhibitors.
Endometrial tissue was obtained from human uteri after hysterectomy conducted for benign disease or from endometrial biopsies. Informed consent was obtained from each patient before surgery and protocols were approved by the Human Research Protection Office of Washington University (HRPO#07-0949). Tissues were placed in HBSS and transported to the laboratory. hESCs were isolated and cultured as previously described. In vitro decidualization was performed as previously described with several changes. Cells were seeded in 6-well plates at 2×10^5 cells/well in DMEM:F12 without phenol red, supplemented with 2% heat-inactivated charcoal dextran-stripped calf serum (HyClone) and 50 μg/ml penicillin/streptomycin (Cambrex Bio Science). Cells were treated with 1 μM medroxyprogesterone-17-acetate (MPA) (Sigma) and 0.5 mM N^6, 2′-O-Dibutyryladenosine 3′,5′-cyclic monophosphate sodium salt (db-cAMP) (Sigma). Control samples received 0.1% ethanol vehicle control.
Human immortalized ESC (ESC telomerase immortalized, ESC-T), were decidualized in vitro in the presence of 0, 2.5 or 5 mM GlcN for 9 days.

The test system of another data set is murine ESCs. As to the kind of experiment: In vitro decidualization of primary murine ESCs (Prp mRNA). Format: cell-based, mouse. As to conditions: 3 days in vitro culture. The source says: In order to confirm that this is not a side effect of ESC immortalization with telomerase overexpression in this human cell line, the effect of DHEA on decidualization of primary ESC cultures from mouse and human uteri was also investigated. Murine ESCs were isolated from the gravid uterus at 4 days post coitus and cultured in vitro for 3 days to induce decidualization as described in the Methods. […] The human primary ESCs were isolated from uteri following hysterectomy for benign disease as outlined in the Methods and cultured in decidualization media for 9 days.
For in vitro decidualization of ESCs, female mice were sacrificed at 4dpc. Pregnancy was confirmed by flushing dissected uterine horns and ostia with HBSS and observing for presence of blastocysts. Uteri confirmed for pregnancy were cut into 1 mm^3 pieces and incubated in Dulbecco's modified Eagle's Medium:F12 medium (DMEM:F12) without phenol red supplemented with 2 g/liter Collagenase Type I (Gibco) for 60-90 min at 37° C. Tissues were vortexed every 15 min during incubation. Following incubation, the solution was passed through a 40 μm sieve (BD Falcon) and centrifuged at 1100 rpm for 5 min. […]

Data set [1] has as its system FVB/NJ mice. As to the kind of experiment: Estrous cycles by vaginal smears in DHEA-fed mice. Format: in vivo, mouse. Here is the method:
(§1) To determine the reversibility of DHEA, mice were fed the two higher DHEA diets that prevented normal estrous cycles for two weeks followed by regular rodent chow for two weeks. Estrous cycles and pregnancy rates were recorded.
(§2) Female FVB/NJ mice were obtained from Jackson Laboratories (Bar Harbor, Me., USA). Regular rodent chow was supplemented with DHEA at 0.01%, 0.1% and 0.6% w/w. Three-week-old mice had access to food and water ad libitum. Mice were fed control or DHEA-supplemented chow for two weeks. The Animal Studies Committee at Washington University School of Medicine reviewed and approved all animal experiments. Animals were maintained according to the Guide for the Care and Use of Laboratory Animals provided by the Institute for Laboratory Animal Research.
Vaginal smears were performed daily starting at eight weeks of age, after puberty, and establishment of regular estrous cycles. Vaginal cells were collected in 10 μl of phosphate buffered saline (PBS) and evaluated for stage of estrous by one investigator by light microscopy.

Data set [2] has as its system FVB/NJ mice. Briefly: Pregnancy rates / litters of DHEA-fed mice. Format: in vivo, mouse. Here is the method: as §1, §2
Control and DHEA-fed mice were mated with males of known fertility until three litters were delivered or up to 12 weeks.

Another data set has as its system denuded GV oocytes. As to the kind of experiment: ATP and citrate levels in single denuded GV oocytes of DHEA-fed mice. Format: in vivo, mouse. An excerpt: (§3) COCs were collected following superovulation with PMSG. Ovaries were removed and placed in M2 media (Sigma, St. Louis, Mo., USA). COCs were obtained by rupture of antral follicles with a syringe and needle. To collect denuded germinal vesicle (GV) oocytes, the cumulus cells were removed by gentle pipetting. The oviducts were removed from PMSG- and hCG-primed mice. The ampulla of the oviduct was punctured to release the clutch of ovulated oocytes 24 hr after hCG.
(§4) Denuded oocytes or cultured blastocysts were frozen on a glass slide with liquid nitrogen and dried overnight at −35° C. under vacuum. Individual oocytes or blastocysts were extracted in nanoliter volume under oil. Assays were designed to measure ATP, citrate and G6PDH by linking with NAD/NADH or NADP/NADPH which are enzymatically amplified in a cycling reaction allowing products to be measured by fluorometry.

Another data set deals with T1, G6PDH (Mus musculus, UniProt Q00612).
T1 construct: Individual oocytes or blastocysts were extracted in nanoliter volume under oil; from tissue; host or cells: denuded germinal vesicle oocytes of mice
Briefly: G6PDH enzyme activity in single oocytes of DHEA-fed mice. Format: in vivo.
Excerpt: as §3, §4

The subject of a further data set is blastocysts. Briefly: ATP and citrate levels in blastocysts cultured from two-cell embryos with DHEA. Format: cell-based, mouse. Here is the method: (§5) Mice were superovulated and mated with males of known fertility. Forty-five hours after injection with hCG, the oviducts were removed. Two-cell embryos were collected by flushing the oviducts with human tubal fluid media (HTF) with 0.25% BSA. Embryos were cultured in HTF with BSA and either DMSO, 10 μM DHEA or 100 μM DHEA for 72 hours. In vitro cultured blastocysts were transferred to 2.5 days postcoitus (dpc) pseudopregnant ICR females. Resulting embryos and placentas were collected at 14.5 dpc and fixed with Bouin's solution, embedded in paraffin and sectioned.
as §4

Another data set has as its system embryos. As to the kind of experiment: Transfer of blastocysts cultured in DHEA to pseudopregnant females. Format: in vivo, mouse. The procedure:
as §5

Another data set concerns oocytes from rats. As to conditions: DHEA 1 mg/100 g or 10 mg/100 g body weight, increased with dose and treatment duration; cited from earlier work.

T1 sequence (Q00612 whole entry): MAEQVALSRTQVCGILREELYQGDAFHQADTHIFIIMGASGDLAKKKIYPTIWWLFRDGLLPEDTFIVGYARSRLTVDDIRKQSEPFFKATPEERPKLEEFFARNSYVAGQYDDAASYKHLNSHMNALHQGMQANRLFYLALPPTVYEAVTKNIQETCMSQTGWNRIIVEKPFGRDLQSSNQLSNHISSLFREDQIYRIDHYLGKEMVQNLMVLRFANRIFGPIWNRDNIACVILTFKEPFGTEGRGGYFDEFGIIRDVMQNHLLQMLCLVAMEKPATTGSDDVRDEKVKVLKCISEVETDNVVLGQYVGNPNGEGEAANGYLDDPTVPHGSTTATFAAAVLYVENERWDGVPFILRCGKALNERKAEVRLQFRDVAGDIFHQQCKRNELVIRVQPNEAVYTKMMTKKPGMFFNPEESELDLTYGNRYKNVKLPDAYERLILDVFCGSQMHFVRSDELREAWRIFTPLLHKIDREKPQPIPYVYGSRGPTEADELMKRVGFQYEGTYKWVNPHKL

Take `C[C@]12CC[C@H](O)CC1=CC[C@@H]1[C@@H]2CC[C@]2(C)C(=O)CC[C@@H]12` [DHEA, dehydroepiandrosterone]: the “PRL and IGFBP1 decidualization markers” value with ESC-T cells (100 μM DHEA, day 4) is recorded as “drastic decrease”. For the same compound, the “Morphological change during decidualization” value in the data set on ESC-T cells (DHEA) is “the morphological progression is halted”. Besides, the “Lowering of PRL and IGFBP1 mRNA expression vs differentiation media only” value in the data set with ESC-T cells (DHEA, day 3 of in vitro culture) is listed as 5 fold. Further, the “Prp mRNA expression” value in the data set with murine ESCs is on record as “decreased upon addition of DHEA in a concentration-dependent manner”. The Estrous cycle length entry in the data set on FVB/NJ mice [1] (0.01% DHEA diet, after two weeks) was “approximately five days longer than controls”. The Estrous cycle stage entry in the data set on FVB/NJ mice [1] (0.1% DHEA and 0.6% DHEA diet) is “remained in metestrus or diestrus for the entire evaluation period”. Further, the “Litters while on diet” value is given as “the litters were smaller than the controls” in the data set with FVB/NJ mice [2] (0.01% DHEA diet); “did not deliver any pups” in the data set with FVB/NJ mice [2] (0.1% and 0.6% DHEA diet). Also, the “Citrate, of control” value with denuded GV oocytes (0.01% DHEA group) is on record as 90%. Moreover, the “Citrate compared to control” value in the data set with denuded GV oocytes (0.1% DHEA group) amounted to 83%. Also, on G6PDH (0.01% DHEA and 0.1% DHEA groups), the G6PDH activity entry was “decreased”. Further, the “G6PDH activity, of normal” value at G6PDH (0.1% DHEA diet) was 87%. Further, the “Citrate levels of control” value was 86% in the data set with blastocysts (10 μM DHEA) and 68% with blastocysts (100 μM DHEA). Moreover, the “Anomalies in the fetuses or abnormal placental histology” value in the data set with embryos is given as “did not lead to increased anomalies”. For the same compound, the “Fetus size at 14.5 dpc” value in the data set on embryos is reported as “significantly smaller fetuses”. Moreover, in the data set on embryos (p=0.054), the “Placenta size at 14.5 dpc” value is given as “smaller placentas”. Moreover, in the data set with oocytes from rats, the “Percentage of degenerated oocytes” value was not above 70%.

These data come from US9381193B2, “Contraceptive methods and compositions” (WASHINGTON UNIVERSITY, priority 2011, dated 2016).
